# In PMC9220178, “Preclinical Characterization of Antioxidant Quinolyl Nitrone QN23 as a New Candidate for the Treatment of Ischemic Stroke” (Antioxidants, 2022):
# Assays:
# [1] = tested on: adult male Wistar rats, four-vessel occlusion (4VO) transient forebrain ischemia; assay: Neuronal death by Fluoro-Jade B staining after transient global cerebral ischemia (4VO); assay type: in vivo, rat; conditions: for Neuroprotection (neuronal death, Fluoro-Jade B): vehicle = 0%
# Description: Transient forebrain ischemia was induced in adult male Wistar rats (10–12 weeks, Charles River, L’Arbresle, France) by the standard four-vessel occlusion (4VO) model previously described. Briefly, animals were anesthetized by intraperitoneal injection of a combination of ketamine, diazepam, and atropine (62.5, 5.0, and 0.25 mg/kg, respectively); positioned in a stereotactic device; and both vertebral arteries were cauterized. The next day, anesthesia was induced with 4% isoflurane and maintained at 2–2.5% isoflurane for carotid artery dissection. After anesthesia withdrawal, the carotid arteries were occluded with an atraumatic vascular clamp to induce brain ischemia. During the entire surgical procedure, temperature was monitored at 2 min intervals and kept at 37 °C. After 15 min of ischemia, the carotid arteries were unclamped for brain reperfusion. The animals were studied after 5 days of reperfusion (R5d), or after 11 weeks of reperfusion (long-term studies), and then they were euthanized under deep anesthesia. Animals from the sham control group were handled in the same way, but without occlusion of the carotid arteries. Ischemic animals were treated with vehicle solution (ethanol/polyethylene glycol 400/saline, 1:300:200 v/v), or with nitrones QN23 or NXY-059 in vehicle solution, as a single injection through the tail vein at the onset of reperfusion. For the therapeutic window experiments, the animals were also treated at reperfusion times 1, 3, and 6 h after ischemia. The treatments were prepared by an independent researcher and administered with concealed allocation. Treatments were administered in a randomized order obtained by a computer-based randomization program. To determine the sample size, a power analysis (http://www.biomath.info/power/ttest.htm, accessed on 12 March 2020) with significance level set at 0.05 and statistical power set at 0.8 (80%) rendered a sample size of <6 subjects per group. A total of 120 ischemic animals (30 animals treated with vehicle, 60 treated with QN23, and 30 treated with NXY-059) and 9 sham control animals were included in these studies. Additionally, 13 animals were excluded from the study: 6 animals were not ischemic and 7 animals died within the 24 h after the surgical procedure (5 vehicles, 1 QN23-treated at 1.0 mg/kg, and 1 QN23-treated at 2.0 mg/kg). The Animal Care Ethics Committee of the Hospital Universitario Ramón y Cajal (Madrid, Spain) authorized all the procedures involving the animal experimentation reported here (authorization number 04/2020). These experiments were performed according to ARRIVE guidelines and the legislation on the protection of animals used for scientific purposes in Spain (RD 53/2013) and the EU (Directive 2010/63/EU). The study was designed and conducted according to the STAIR guidelines regarding physiological monitoring, sample randomization, predefined exclusion criteria, allocation concealment, blinded assessment of outcomes, dose–response definition, and a conflict-of-interest statement.
# After 5 days of reperfusion (R5d), or at 11 weeks of reperfusion in long-term studies, animals were euthanized by transcardiac perfusion via the left ventricle under deep anesthesia. First, blood was washed out with 200 mL of ice-cold saline medium, followed by fixation with 4% (w/v) paraformaldehyde solution in PBS for brain preservation. Then, the brains were carefully removed from the cranial cavity and placed in 4% (w/v) paraformaldehyde solution in PBS overnight at 4 °C. The next day, the brains were sequentially placed in 10%, 20%, and 30% (w/v) sucrose in PBS until sunken, and finally embedded in Tissue-Tek O.C.T. (Sakura Finetek, Torrance, CA, USA) before freezing at −80 °C. Brain coronal sections containing the hippocampus region were obtained by cryostat sectioning at the level of interaural line +5.7 ± 0.2 mm on Real Capillary Gap microscope slides (Agilent Dako, Santa Clara, CA, USA). […]
# [2] = tested on: female Sprague Dawley rats; assay: Toxicity study, 4-day repeated i.v. dose; assay type: in vivo, rat
# Description: For the toxicokinetics study of QN23, female Sprague Dawley rats (9–10 weeks, Envigo, Barcelona, Spain) were divided into three groups (n = 6 per group) and treated intravenously with different concentrations of QN23 (2.0, 6.0, and 18 mg/kg), in vehicle solution (ethanol/polyethylene glycol 400/saline, 1:200:60 v/v), as a single bolus of 1 mL injection at 3 mL/min. Samples of plasma were taken at 0.25, 0.5, 1, 2, 4, and 8 h after the first administration (on day 1) and QN23 concentration was determined by liquid chromatography–mass spectrometry in tandem (LC-MS/MS) analysis for pharmacokinetic study. For the determination of the toxicokinetic parameters, a noncompartmental analysis was performed using the Phoenix 64 WinNonlin software (version 8.0, Certara, Sant Louis, MO, USA). This study was carried out by Swiss BioQuant AG (Reinach, Switzerland). For the toxicity study of QN23, rats were divided into four groups (n = 5 per group) and treated intravenously with vehicle (control group) or different concentrations of QN23 (2.0, 6.0, and 18 mg/kg) as a single bolus injection in a 4-day repeated dose as described above. Pathology analyses, comprising hematology, clinical biochemistry, and coagulation, were performed, and heart, kidney, liver, and spleen necropsies were collected for macroscopic analysis. This study was carried out by Vivotecnia Research S.L (Madrid, Spain).
# [3] = Solubility studies for the injection vehicle; assay type: physicochemical; conditions: ethanol/saline, 1:9 v/v; highest concentrations (for doses up to 2.5 mg/kg)
# Description: In the following section, we describe the effect of different doses of QN23 (1.0, 1.5, 2.0, and 2.5 mg/kg) administered intravenously (see Materials and Methods, Section 2.2). In order to explore this wider range of concentrations, solubility studies were carried out before the in vivo experiments in order to assess a proper pharmacological formulation. For the highest concentrations, QN23 was not soluble in our usual ethanolic vehicle (ethanol/saline, 1:9 v/v). After exploration of different formulations able to provide a safe injection method, we got the desired concentrations using a vehicle of ethanol, polyethylene glycol 400, and saline (1:300:200, v/v). Using this vehicle, animals were treated intravenously with QN23 concentrations of 1.0, 1.5, 2.0, and 2.5 mg/kg as a single injection at the onset of the reperfusion period after transient cerebral ischemia. After five days of recovery (R5d), neuronal death, apoptosis, and neurodeficit score were determined (Figure 1 and Figure 2).
# [4] = cerebral cortex, 2.0 mg/kg i.v. at reperfusion onset, R5d
# [5] = four-day repeated i.v. dose, 2.0, 6.0 and 18 mg/kg
# [6] = four-day repeated i.v. dose, at some doses, no treatment-related effects concluded
structure (smiles),measurement,setting,value
"COc1ccc2nc(Cl)c(/C=[N+](\[O-])C(C)(C)C)cc2c1 [QN23, (Z)-N-tert-Butyl-1-(2-chloro-6-methoxyquinolin-3-yl)methanimine Oxide]",Therapeutic window: injection time after reperfusion onset with significantly decreased neuronal death,"[1]; 2.0 mg/kg i.v., CA1 and cortical regions, R5d, times tested 0, 1, 3, 6 h",up to 3 h
same,"Neuroprotection (neuronal death, Fluoro-Jade B)","[1]; cerebral cortex, 1.5 mg/kg i.v. at reperfusion onset, R5d",89.2%
same,Neuronal death compared with vehicle,[1]; [4],significantly reduced
same,"Neuroprotection (neuronal death, Fluoro-Jade B)",[1]; [4],89.5%
same,"EC50 of neuroprotection, neuronal death assay","[1]; either CA1 or cortical region, i.v., from dose-response curve",0.3 mg/kg
same,"Neuroprotection (neuronal death, Fluoro-Jade B)","[1]; hippocampal CA1, 1.5 mg/kg i.v. at reperfusion onset, R5d",22.6%
same,"Neuroprotection (neuronal death, Fluoro-Jade B)","[1]; hippocampal CA1, 2.0 mg/kg i.v. at reperfusion onset, R5d",23.8%
same,Neuronal death compared with vehicle,"[1]; hippocampal CA1, 2.0 or 2.5 mg/kg i.v. at reperfusion onset, R5d",significantly reduced
same,Tolerability of repeated intravenous administration,"[2]; 2.0, 6.0 and 18 mg/kg i.v. for four days",well tolerated
same,Treatment-related systemic signs,"[2]; 2.0, 6.0 and 18 mg/kg i.v., four-day repeated dose, compared with control group",no treatment-related systemic signs were detected
same,Absolute or relative organ weights versus control group,[2]; [5],no significant differences
same,Food intake,[2]; [5],no effects were observed
same,"Macroscopic findings at necropsy (heart, kidneys, liver, spleen)",[2]; [5],no macroscopic findings
same,"Alkaline phosphatase (ALP) level, slight variation",[2]; [6],decreased
same,"Aspartate aminotransferase (AST) level, slight variation",[2]; [6],increased
same,Solubility in ethanolic vehicle,[3],not soluble
